According to ChEMBL document CHEMBL5465560, “Selectivity Literature for EUbOPEN Chemogenomic Library” (2024):

Experiments:
[1] = target: STE20/SPS1-related proline-alanine-rich protein kinase (Homo sapiens) (UniProt Q9UEW8); experiment: Selectivity interaction (Kinase panel (KiNativ target engagement assay in Jurkat cells)) EUB0001635a STK39; format: cell-based; conditions: Selectivity number of off-targets 0.0, Selectivity number of targets 233.0, Source Knowledge https://www.sciencedirect.com/science/article/pii/S2451945619300674?via%3Dihub, at 1 µM
[2] = target: Cyclin-dependent kinase 5 (Homo sapiens, UniProt Q00535); experiment: Selectivity interaction (ActivX KiNativ screen (kinase selectivity in THP-1 cell lysates)) EUB0000639a CDK5; format: subcellular; conditions: lysate
Chain of Cyclin-dependent kinase 5 (Q00535 whole entry, looked up): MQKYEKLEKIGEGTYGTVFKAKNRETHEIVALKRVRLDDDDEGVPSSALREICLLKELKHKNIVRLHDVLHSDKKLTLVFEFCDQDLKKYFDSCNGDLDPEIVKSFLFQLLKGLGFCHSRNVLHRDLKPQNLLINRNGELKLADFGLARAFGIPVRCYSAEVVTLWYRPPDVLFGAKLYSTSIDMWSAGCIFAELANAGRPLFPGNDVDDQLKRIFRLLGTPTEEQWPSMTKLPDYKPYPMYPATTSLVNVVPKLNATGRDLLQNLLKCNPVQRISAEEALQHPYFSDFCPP

[3] = target: T1, Interleukin-1 receptor-associated kinase 3 (Homo sapiens) (UniProt Q9Y616); experiment: Selectivity interaction (ActivX KiNativ screen (kinase selectivity in THP-1 cell lysates)) EUB0000639a IRAK3; format: subcellular; conditions: lysate, at 1 µM
T1 sequence (whole entry): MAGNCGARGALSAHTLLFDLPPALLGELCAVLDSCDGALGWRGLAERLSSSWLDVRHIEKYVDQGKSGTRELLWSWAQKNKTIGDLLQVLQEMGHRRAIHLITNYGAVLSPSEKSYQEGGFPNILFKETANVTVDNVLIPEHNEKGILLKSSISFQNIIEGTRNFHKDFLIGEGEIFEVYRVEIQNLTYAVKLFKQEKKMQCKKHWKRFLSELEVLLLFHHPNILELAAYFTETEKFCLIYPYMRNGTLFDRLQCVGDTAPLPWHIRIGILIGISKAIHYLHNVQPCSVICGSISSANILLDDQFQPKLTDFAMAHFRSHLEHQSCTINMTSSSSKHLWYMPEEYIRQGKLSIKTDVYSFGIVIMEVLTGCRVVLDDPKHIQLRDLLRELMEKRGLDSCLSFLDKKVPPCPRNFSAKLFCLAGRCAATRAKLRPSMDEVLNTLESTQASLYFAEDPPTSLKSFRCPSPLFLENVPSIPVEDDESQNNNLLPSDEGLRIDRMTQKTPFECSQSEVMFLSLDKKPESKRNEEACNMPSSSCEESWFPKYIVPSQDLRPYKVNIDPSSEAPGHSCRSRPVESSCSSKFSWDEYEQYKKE

[4] = target: T2, Serine/threonine-protein kinase 36 (Homo sapiens) (UniProt Q9NRP7); experiment: Selectivity interaction (KinomeScan (DiscoverX)) EUB0000092b STK36; conditions: at 10 µM
T2 sequence (whole entry): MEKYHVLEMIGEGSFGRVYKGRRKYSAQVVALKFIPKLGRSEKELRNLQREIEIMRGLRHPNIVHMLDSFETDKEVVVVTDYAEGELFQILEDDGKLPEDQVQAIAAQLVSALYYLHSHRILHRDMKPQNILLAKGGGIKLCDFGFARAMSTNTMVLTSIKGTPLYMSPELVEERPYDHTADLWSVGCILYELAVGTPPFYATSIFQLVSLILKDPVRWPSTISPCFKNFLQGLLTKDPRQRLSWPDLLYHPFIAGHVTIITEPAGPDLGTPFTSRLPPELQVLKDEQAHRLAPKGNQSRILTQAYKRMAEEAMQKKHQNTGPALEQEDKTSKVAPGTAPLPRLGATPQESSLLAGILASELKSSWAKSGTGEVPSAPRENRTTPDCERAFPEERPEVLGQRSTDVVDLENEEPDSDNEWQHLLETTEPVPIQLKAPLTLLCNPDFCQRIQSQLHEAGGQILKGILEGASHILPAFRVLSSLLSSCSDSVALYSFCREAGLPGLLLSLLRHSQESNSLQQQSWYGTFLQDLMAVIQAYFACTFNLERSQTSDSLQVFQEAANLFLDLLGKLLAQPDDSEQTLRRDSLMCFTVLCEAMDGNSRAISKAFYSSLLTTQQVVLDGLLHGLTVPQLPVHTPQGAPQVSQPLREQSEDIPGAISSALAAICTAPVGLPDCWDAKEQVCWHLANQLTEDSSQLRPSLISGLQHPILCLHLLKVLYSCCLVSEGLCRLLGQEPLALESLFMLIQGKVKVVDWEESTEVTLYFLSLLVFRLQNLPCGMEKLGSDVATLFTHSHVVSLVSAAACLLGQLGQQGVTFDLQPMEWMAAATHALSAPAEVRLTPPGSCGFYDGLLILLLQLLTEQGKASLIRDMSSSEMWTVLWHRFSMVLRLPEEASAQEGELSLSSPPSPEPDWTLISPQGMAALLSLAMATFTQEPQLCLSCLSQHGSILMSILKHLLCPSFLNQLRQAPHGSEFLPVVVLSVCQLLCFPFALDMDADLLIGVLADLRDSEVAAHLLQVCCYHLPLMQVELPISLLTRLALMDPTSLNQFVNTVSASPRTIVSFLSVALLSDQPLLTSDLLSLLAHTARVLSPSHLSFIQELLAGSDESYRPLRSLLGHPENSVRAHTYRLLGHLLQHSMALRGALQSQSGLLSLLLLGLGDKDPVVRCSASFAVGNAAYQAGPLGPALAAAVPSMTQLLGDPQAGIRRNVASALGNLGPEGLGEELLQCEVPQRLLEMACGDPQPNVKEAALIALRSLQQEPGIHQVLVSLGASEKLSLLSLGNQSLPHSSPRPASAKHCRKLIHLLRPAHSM

[5] = target: T3, Aurora kinase A (Homo sapiens) (UniProt O14965); experiment: Selectivity interaction (KinomeScan (DiscoverX)) EUB0000655a STK6; conditions: at 10 µM
T3 sequence (whole entry): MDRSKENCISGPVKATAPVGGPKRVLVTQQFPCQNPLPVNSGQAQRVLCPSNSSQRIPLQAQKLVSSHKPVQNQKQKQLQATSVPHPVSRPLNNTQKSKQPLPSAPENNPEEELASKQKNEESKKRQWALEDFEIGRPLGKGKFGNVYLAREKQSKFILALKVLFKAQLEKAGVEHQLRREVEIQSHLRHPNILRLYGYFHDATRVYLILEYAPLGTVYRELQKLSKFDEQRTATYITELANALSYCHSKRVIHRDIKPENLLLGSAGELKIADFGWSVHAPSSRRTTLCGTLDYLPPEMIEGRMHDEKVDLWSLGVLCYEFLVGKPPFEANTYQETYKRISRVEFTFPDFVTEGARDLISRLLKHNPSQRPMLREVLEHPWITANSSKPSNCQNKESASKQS

[6] = target: Tyrosine-protein kinase BTK (Homo sapiens, UniProt Q06187); conditions: at 1 µM
Chain of Tyrosine-protein kinase BTK (Q06187 whole entry): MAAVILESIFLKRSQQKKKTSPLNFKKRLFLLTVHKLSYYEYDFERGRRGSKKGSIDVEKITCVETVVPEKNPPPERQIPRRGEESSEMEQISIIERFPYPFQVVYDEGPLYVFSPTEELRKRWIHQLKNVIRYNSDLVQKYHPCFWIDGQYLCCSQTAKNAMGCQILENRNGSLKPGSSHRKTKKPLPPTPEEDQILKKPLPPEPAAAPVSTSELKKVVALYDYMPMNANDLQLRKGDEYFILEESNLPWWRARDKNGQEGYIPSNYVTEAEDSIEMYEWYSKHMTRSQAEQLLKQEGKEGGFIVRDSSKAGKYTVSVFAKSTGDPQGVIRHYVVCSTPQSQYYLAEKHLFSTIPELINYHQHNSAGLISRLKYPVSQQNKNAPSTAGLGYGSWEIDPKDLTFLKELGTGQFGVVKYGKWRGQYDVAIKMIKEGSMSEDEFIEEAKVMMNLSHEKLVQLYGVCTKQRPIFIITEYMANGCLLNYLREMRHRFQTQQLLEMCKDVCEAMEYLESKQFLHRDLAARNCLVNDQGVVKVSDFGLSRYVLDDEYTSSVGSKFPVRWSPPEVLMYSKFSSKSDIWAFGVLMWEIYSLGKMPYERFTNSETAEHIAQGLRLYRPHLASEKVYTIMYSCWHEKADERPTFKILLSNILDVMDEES

C=CC(=O)Nc1ccc(C(=O)Nc2[nH]nc3c2CN(C(=O)N[C@H](CN(C)C)c2ccccc2)C3(C)C)cc1
% of engagement [1]: 11.5%

CC[C@@H]1[C@H](F)C(=O)N[C@@H]1COc1nccc2cc(C(N)=O)c(OC)cc12 [ZIMLOVISERTIB]
% of inhibition ([2]; at 0.01 µM): 3.6%
% of inhibition ([2]; at 0.04 µM): 3.9%
% of inhibition ([2]; at 0.2 µM): -0.2%
% of inhibition ([2]; at 1 µM): 2.7%
% of inhibition ([2]; at 5 µM): -6.9%
% of inhibition [3]: 73%

CCC(=O)N1CCN(c2ccc(-n3c(=O)ccc4cnc5ccc(-c6cnc7ccccc7c6)cc5c43)cc2C(F)(F)F)CC1
% of control [4]: 17%

CN(C)CCOc1ccc(-c2nc(-c3ccncc3)c(-c3ccc4c(c3)CC/C4=N\O)[nH]2)cc1
% of control [5]: 90%

Cc1cc(-c2ccnc(Nc3cnn(C)c3)n2)ccc1CNC(=O)N1CC(OC(C)C)C1
% of control [6]: 2.9%
